Measurements published in ChEMBL document CHEMBL6078713, “Synthesis and mechanistic studies of 4-aminoquinoline-Isatin molecular hybrids and Schiff's bases as promising antimicrobial agents” (Eur J Med Chem, 2025).
Converted amounts (≈) assume the structure as drawn. The source made the active and inactive calls. The rule behind the calls is not given here.

Assays:
[1] = system: Escherichia coli; experiment: Antibacterial activity against Escherichia coli MTCC 443 assessed as diameter of zone of inhibition at 500 ug/ml by agar disk diffusion method; format: functional; conditions: read-out: DIZ
[2] = system: Enterococcus faecalis; experiment: Antibacterial activity against Enterococcus faecalis MTCC 439 assessed as diameter of zone of inhibition at 500 ug/ml by agar disk diffusion method; format: functional; conditions: read-out: DIZ
[3] = system: Bacillus subtilis; experiment: Antibacterial activity against Bacillus subtilis MTCC 736 assessed as diameter of zone of inhibition at 500 ug/ml by agar disk diffusion method; format: functional; conditions: read-out: DIZ
[4] = system: Staphylococcus aureus; experiment: Antibacterial activity against Staphylococcus aureus MTCC 902 assessed as diameter of zone of inhibition at 500 ug/ml by agar disk diffusion method; format: functional; conditions: read-out: DIZ
[5] = system: Pseudomonas aeruginosa; experiment: Antibacterial activity against Pseudomonas aeruginosa MTCC 2453 assessed as diameter of zone of inhibition at 500 ug/ml by agar disk diffusion method; format: functional; conditions: read-out: DIZ
[6] = system: Salmonella typhi; experiment: Antibacterial activity against Salmonella typhi assessed as diameter of zone of inhibition at 500 ug/ml by agar disk diffusion method; format: functional, Salmonella enterica subsp. enterica serovar Typhi; conditions: Salmonella enterica, read-out: DIZ
[7] = system: Escherichia coli; experiment: Antibacterial activity against Escherichia coli MTCC 443 assessed as inhibition of bacterial growth incubated overnight by serial dilution based spectrophotometer; format: functional
[8] = system: Enterococcus faecalis; experiment: Antibacterial activity against Enterococcus faecalis MTCC 439 assessed as inhibition of bacterial growth incubated overnight by serial dilution based spectrophotometer; format: functional
[9] = system: Bacillus subtilis; experiment: Antibacterial activity against Bacillus subtilis MTCC 736 assessed as inhibition of bacterial growth incubated overnight by serial dilution based spectrophotometer; format: functional
[10] = system: Salmonella typhi; experiment: Antibacterial activity against Salmonella typhi assessed as inhibition of bacterial growth incubated overnight by serial dilution based spectrophotometer; format: functional, Salmonella enterica subsp. enterica serovar Typhi; conditions: Salmonella enterica
[11] = system: Escherichia coli; experiment: Bactericidal activity against Escherichia coli MTCC 443 assessed as inhibition of bacterial growth incubated overnight; format: functional
[12] = system: Enterococcus faecalis; experiment: Bactericidal activity against Enterococcus faecalis MTCC 439 assessed as inhibition of bacterial growth incubated overnight; format: functional
[13] = system: Bacillus subtilis; experiment: Bactericidal activity against Bacillus subtilis MTCC 736 assessed as inhibition of bacterial growth incubated overnight; format: functional
[14] = system: Staphylococcus aureus; experiment: Bactericidal activity against Staphylococcus aureus MTCC 902 assessed as inhibition of bacterial growth incubated overnight; format: functional
[15] = system: Pseudomonas aeruginosa; experiment: Bactericidal activity against Pseudomonas aeruginosa MTCC 2453 assessed as inhibition of bacterial growth incubated overnight; format: functional
[16] = system: Salmonella typhi; experiment: Bactericidal activity against Salmonella typhi assessed as inhibition of bacterial growth incubated overnight; format: functional, Salmonella enterica subsp. enterica serovar Typhi; conditions: Salmonella enterica
[17] = system: Escherichia coli; experiment: Ratio of MBC for antibacterial activity against Escherichia coli MTCC 443 to MIC for bactericidal activity against Escherichia coli MTCC 443; format: functional
[18] = system: Enterococcus faecalis; experiment: Ratio of MBC for antibacterial activity against Enterococcus faecalis MTCC 439 to MIC for bactericidal activity against Enterococcus faecalis MTCC 439; format: functional
[19] = system: Bacillus subtilis; experiment: Ratio of MBC for antibacterial activity against Bacillus subtilis MTCC 736 to MIC for bactericidal activity against Bacillus subtilis MTCC 736; format: functional
[20] = system: Staphylococcus aureus; experiment: Ratio of MBC for antibacterial activity against Staphylococcus aureus MTCC 902 to MIC for bactericidal activity against Staphylococcus aureus MTCC 902; format: functional
[21] = system: Pseudomonas aeruginosa; experiment: Ratio of MBC for antibacterial activity against Pseudomonas aeruginosa MTCC 2453 to MIC for bactericidal activity against Pseudomonas aeruginosa MTCC 2453; format: functional
[22] = system: Escherichia coli; experiment: Antibacterial activity against Escherichia coli MTCC 443 assessed as diameter of zone of inhibition at 0.5 times MIC incubated overnight by disk diffusion method; format: functional
[23] = system: Escherichia coli; experiment: Antibacterial activity against Escherichia coli MTCC 443 assessed as diameter of zone of inhibition at MIC incubated overnight by disk diffusion method; format: functional
[24] = system: Enterococcus faecalis; experiment: Antibacterial activity against Enterococcus faecalis MTCC 439 assessed as diameter of zone of inhibition at MIC incubated overnight by disk diffusion method; format: functional
[25] = system: Bacillus subtilis; experiment: Antibacterial activity against Bacillus subtilis MTCC 736 assessed as diameter of zone of inhibition at MIC incubated overnight by disk diffusion method; format: functional
[26] = system: Staphylococcus aureus; experiment: Antibacterial activity against Staphylococcus aureus MTCC 902 assessed as diameter of zone of inhibition at MIC incubated overnight by disk diffusion method; format: functional
[27] = system: Pseudomonas aeruginosa; experiment: Antibacterial activity against Pseudomonas aeruginosa MTCC 2453 assessed as diameter of zone of inhibition at MIC incubated overnight by disk diffusion method; format: functional
[28] = system: Salmonella typhi; experiment: Antibacterial activity against Salmonella typhi assessed as diameter of zone of inhibition at MIC incubated overnight by disk diffusion method; format: functional, Salmonella enterica subsp. enterica serovar Typhi
[29] = system: Escherichia coli; experiment: Antibacterial activity against Escherichia coli MTCC 443 assessed as diameter of zone of inhibition at 2 times MIC incubated overnight by disk diffusion method; format: functional
[30] = system: Enterococcus faecalis; experiment: Antibacterial activity against Enterococcus faecalis MTCC 439 assessed as diameter of zone of inhibition at 2 times MIC incubated overnight by disk diffusion method; format: functional
[31] = system: Staphylococcus aureus; experiment: Antibacterial activity against Staphylococcus aureus MTCC 902 assessed as diameter of zone of inhibition at 2 times MIC incubated overnight by disk diffusion method; format: functional
[32] = system: Pseudomonas aeruginosa; experiment: Antibacterial activity against Pseudomonas aeruginosa MTCC 2453 assessed as diameter of zone of inhibition at 2 times MIC incubated overnight by disk diffusion method; format: functional
[33] = system: Escherichia coli; experiment: Synergistic antibacterial activity against Escherichia coli MTCC 443 assessed as inhibition of bacterial growth incubated overnight in presence of ciprofloxacin by serial dilution based spectrophotometer; format: functional
[34] = system: Enterococcus faecalis; experiment: Synergistic antibacterial activity against Enterococcus faecalis MTCC 439 assessed as inhibition of bacterial growth incubated overnight in presence of ciprofloxacin by serial dilution based spectrophotometer; format: functional
[35] = system: Bacillus subtilis; experiment: Synergistic antibacterial activity against Bacillus subtilis MTCC 736 assessed as inhibition of bacterial growth incubated overnight in presence of ciprofloxacin by serial dilution based spectrophotometer; format: functional
[36] = system: Staphylococcus aureus; experiment: Synergistic antibacterial activity against Staphylococcus aureus MTCC 902 assessed as inhibition of bacterial growth incubated overnight in presence of ciprofloxacin by serial dilution based spectrophotometer; format: functional
[37] = system: Pseudomonas aeruginosa; experiment: Synergistic antibacterial activity against Pseudomonas aeruginosa MTCC 2453 assessed as inhibition of bacterial growth incubated overnight in presence of ciprofloxacin by serial dilution based spectrophotometer; format: functional
[38] = system: Salmonella typhi; experiment: Synergistic antibacterial activity against Salmonella typhi assessed as inhibition of bacterial growth incubated overnight in presence of ciprofloxacin by serial dilution based spectrophotometer; format: functional, Salmonella enterica subsp. enterica serovar Typhi; conditions: Salmonella enterica
[39] = system: Escherichia coli; experiment: Synergistic antibacterial activity against Escherichia coli MTCC 443 assessed as fractional inhibitory concentration index incubated overnight in presence of ciprofloxacin by microdilution checkerboard assay; format: functional
[40] = system: Enterococcus faecalis; experiment: Synergistic antibacterial activity against Enterococcus faecalis MTCC 439 assessed as fractional inhibitory concentration index incubated overnight in presence of ciprofloxacin by microdilution checkerboard assay; format: functional
[41] = system: Salmonella typhi; experiment: Synergistic antibacterial activity against Salmonella typhi assessed as fractional inhibitory concentration index incubated overnight in presence of ciprofloxacin by microdilution checkerboard assay; format: functional, Salmonella enterica subsp. enterica serovar Typhi
[42] = system: Escherichia coli; experiment: Bacteriostatic activity against Escherichia coli MTCC 443 assessed as reduction in bacterial growth at 2 times MIC measured upto 24 hrs by absorbance based assay; format: functional, organism-based
[43] = system: Staphylococcus aureus; experiment: Bacteriostatic activity against Staphylococcus aureus MTCC 902 assessed as reduction in bacterial growth at 2 times MIC measured upto 24 hrs by absorbance based assay; format: functional, organism-based

`O=[N+]([O-])c1ccccc1/C=N/CCNc1ccnc2cc(Cl)ccc12` gave a zone of inhibition at 500 µg/mL [1] of 11 mm, a zone of inhibition at 500 µg/mL [2] of 13 mm and a zone of inhibition at 500 µg/mL [3] of 12 mm. For the same compound, the zone of inhibition at 500 µg/mL [4] was 10 mm, the zone of inhibition at 500 µg/mL [5] was 11 mm and the zone of inhibition at 500 µg/mL [6] was 12 mm. It also gave an MIC [7] of 128 µg/mL (≈ 361 µM), an MIC [8] of 128 µg/mL (≈ 361 µM) and an MIC [9] of 128 µg/mL (≈ 361 µM). The MIC [10] was 64 µg/mL (≈ 180 µM), the MBC [11] was 128 µg/mL (≈ 361 µM) and the MBC [12] was 256 µg/mL (≈ 722 µM). It also gave an MBC [13] of 128 µg/mL (≈ 361 µM), an MBC [14] of 256 µg/mL (≈ 722 µM) and an MBC [15] of 128 µg/mL (≈ 361 µM). It also gave an MBC [16] of 64 µg/mL (≈ 180 µM), a Ratio [17] of 1 and a Ratio [18] of 2. For the same compound, the Ratio [19] was 1, the Ratio [20] was 1 and the Ratio [21] was 1. For the same compound, the “diameter of the inhibition zone (DIZ)” value [22] was 6 mm, the “diameter of the inhibition zone (DIZ)” value [23] was 7 mm and the “diameter of the inhibition zone (DIZ)” value [24] was 10 mm. The “diameter of the inhibition zone (DIZ)” value [25] was 9 mm, the “diameter of the inhibition zone (DIZ)” value [26] was 8 mm and the “diameter of the inhibition zone (DIZ)” value [27] was 8 mm. The “diameter of the inhibition zone (DIZ)” value [28] was 11 mm, the “diameter of the inhibition zone (DIZ)” value [29] was 9 mm and the “diameter of the inhibition zone (DIZ)” value [30] was 12 mm. For the same compound, the “diameter of the inhibition zone (DIZ)” value [31] was 9 mm, the “diameter of the inhibition zone (DIZ)” value [32] was 11 mm and the MIC [33] was 8 µg/mL. It also gave an MIC [34] of 2 µg/mL, an MIC [35] of 32 µg/mL and an MIC [36] of 64 µg/mL. For the same compound, the MIC [37] was 64 µg/mL, the MIC [38] was 1 µg/mL and the “fractional inhibitory concentration index (FICI)” value [39] was 0.124. The “fractional inhibitory concentration index (FICI)” value [40] was 0.265, the “fractional inhibitory concentration index (FICI)” value [41] was 0.077 and the Activity [42] was “Active”. For the same compound, the Activity [43] was “Active”.
